IC50 data for 17 molecules are collected here from US10954214B2 (Janssen Pharmaceutica NV, priority 2016, dated 2021).

Each structure is given as a SMILES string.

Assay [1] deals with IL10 secretion by TMD8 ABC-DLBCL cells. Nature of the assay: Human IL10 Mesoscale assay (TMD-8). The class given is cell-based. The settings on record: Homo sapiens, TMD8; TMD-8 cells, 24 h. Put shortly:
(§1)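 TMD8 or OCI-LY3 cells (100,000/well) were exposed to compounds in 9 twofold dilutions from 15 μM to 58.6 nM (0.3% DMSO) for 24 h at 37 °C. Supernatant IL6 and IL10 were quantified by MSD electrochemiluminescence immunoassay. DMSO defined maximum signal and BTK inhibitor RN486 (30 nM–131 pM) defined maximum inhibition.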

For assay [2], the target named is full-length MALT1 protein (Strep-MALT1(1-824)-His) (Homo sapiens (Human), UniProt Q9UDY8). Nature of the assay: MALT1 Biochemical Protease Assay (Ac-LRSR-AMC substrate). The settings on record: 10 nM FL MALT1, 200 μM Ac-LRSR-AMC, 4 h at RT; read-out: MALT1_Biochemical activity (Ac-LRSR-amc) IC50. Put shortly:
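Full-length MALT1 pre-incubated with compounds (30 μM to 0.5 nM, 11 threefold steps) for 50 min at RT. After Ac-LRSR-AMC was added, the reaction ran 4 h at RT and AMC fluorescence was read. IC50 and Hill slope from curve fitting against no-enzyme and no-compound controls.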

Assay [3] has as its system OCI-Ly3 cells. The experiment in a line: 4-day proliferation assay, OCI-Ly3. The settings on record: Homo sapiens, 96 h, 4 days incubation, CellTiterGLO, read-out: Anti-proliferation: OCI-LY-3 IC50. The class given is cell-based, human. An outline of the steps: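 TMD8 and OCI-Ly3 cells were seeded at 10,000 per well and grown 4 days at 37° C, 5% CO2 without beta-mercaptoethanol. Viability was read by CellTiter-Glo luminescence. IC50 and Hill slope were fitted relative to the low control median.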

Assay [4] concerns TMD8 cells. Nature of the assay: 4-day proliferation assay, TMD8. It is filed as cell-based. The settings on record: Homo sapiens, 96 h, 4 days incubation, CellTiterGLO, read-out: Anti-proliferation: TMD-8 IC50. On the procedure:
To assess anti-proliferative effects, MALT1 inhibitor test compounds were tested in 4-day proliferation assays using three different DLBCL cell lines.
Cells should be kept between 0.5-2.5 million cells per mL during culturing and cells should be supplemented every 2-3 days with fresh 50 μM beta-mercaptoenthanol. No beta-mercaptoethanol is used during the proliferation assay. OCI-Ly7 cells were propagated in IMDM (ThermoFisher) supplemented with 10% fetal bovine serum (HyClone), 2 mM L-glutamine (Sigma Aldrich) and 50 μg/mL Gentamycin. Cell passage numbers should not exceed 30 (for OCI-Ly3 cells with passage number lower than 10 were used).
10,000 TMD8, 10,000 OCI-Ly3 or 2,000 OCI-Ly7 cells were seeded in 100 μL media per well and incubated for 4 days at 37° C. and 5% CO2. Cell plating numbers were chosen based on growth curves to ensure linear cell growth. After 4 days of incubation 50 μL CellTiterGLO reagent (Promega) were added to each well and luminescence was measured on the Envision after 10 min of incubation at room temperature.
LC=median of the low control values
An estimate of the slope of the plot in terms of the Hill coefficient was also obtained.
A general note: ATP-based viability assays read luminescence as a measure of living cells.

The subject of assay [5] is IL6 secretion by TMD8 ABC-DLBCL cells. The experiment in a line: Human IL6 Mesoscale assay (TMD-8). It is filed as cell-based. The note with it: Homo sapiens, TMD8; TMD-8 cells, 24 h. Put shortly:
as §1

Chain of full-length MALT1 protein (Strep-MALT1(1-824)-His) (Q9UDY8 whole entry): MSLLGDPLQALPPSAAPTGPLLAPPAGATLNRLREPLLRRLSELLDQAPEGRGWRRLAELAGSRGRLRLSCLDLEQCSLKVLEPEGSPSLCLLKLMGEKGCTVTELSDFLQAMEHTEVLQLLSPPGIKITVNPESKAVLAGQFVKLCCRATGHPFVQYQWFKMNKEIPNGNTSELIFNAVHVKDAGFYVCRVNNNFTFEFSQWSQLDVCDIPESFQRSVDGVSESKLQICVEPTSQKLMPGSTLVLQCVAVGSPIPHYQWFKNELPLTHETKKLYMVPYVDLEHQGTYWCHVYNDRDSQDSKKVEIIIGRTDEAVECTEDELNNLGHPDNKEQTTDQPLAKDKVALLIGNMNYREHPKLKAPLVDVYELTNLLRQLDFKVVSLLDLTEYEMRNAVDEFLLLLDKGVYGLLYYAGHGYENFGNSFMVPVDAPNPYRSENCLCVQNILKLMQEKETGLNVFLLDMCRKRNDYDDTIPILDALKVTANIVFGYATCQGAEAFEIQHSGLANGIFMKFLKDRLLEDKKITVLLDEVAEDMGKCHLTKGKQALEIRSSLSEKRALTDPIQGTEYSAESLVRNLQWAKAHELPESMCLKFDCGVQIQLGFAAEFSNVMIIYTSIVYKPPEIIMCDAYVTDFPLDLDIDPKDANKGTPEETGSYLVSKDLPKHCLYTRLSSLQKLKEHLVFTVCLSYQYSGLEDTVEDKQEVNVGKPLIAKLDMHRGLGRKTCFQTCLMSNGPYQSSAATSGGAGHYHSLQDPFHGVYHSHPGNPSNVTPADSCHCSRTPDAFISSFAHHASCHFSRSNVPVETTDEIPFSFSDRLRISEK

Take `COC(=O)c1cc(NC(=O)c2cnn(-c3cncc4ccccc34)c2C(F)(F)F)cc(Cl)n1` [Cpd 74, Methyl 6-chloro-4-(1-(isoquinolin-4-yl)-5-(trifluoromethyl)-1H-pyrazole-4-carboxamido)picolinate]: the IC50 in assay [1] is 1380 nM; in assay [2], 372 nM; in assay [3] it was 2450 nM; in assay [4] it was above 20000 nM; in assay [5] it was 1380 nM.
Take `Cn1ccc(-c2ncc(NC(=O)c3cnn(-c4cncc5ccccc45)c3C(F)(F)F)cc2C#N)n1` [Cpd 78, N-(5-cyano-6-(1-methyl-1H-pyrazol-3-yl)pyridin-3-yl)-1-(isoquinolin-4-yl)-5-(trifluoromethyl)-1H-pyrazole-4-carboxamide]: the IC50 in assay [1] was 112 nM; in assay [2] it was 55 nM; in assay [3] it was around 490 nM; in assay [4], 7590 nM; in assay [5], 81 nM.
As for `O=C(Nc1cnc(OC2CC2)c(Cl)c1)c1cnn(-c2cccc3ncccc23)c1C(F)(F)F` [Cpd 79, N-(5-Chloro-6-cyclopropoxypyridin-3-yl)-1-(quinolin-5-yl)-5-(trifluoromethyl)-1H-pyrazole-4-carboxamide], the IC50 in assay [1] was 251 nM; in assay [2], 98 nM; in assay [3], around 2340 nM; in assay [4] it was 8320 nM; in assay [5], around 340 nM.
On to `CCOc1ncc(NC(=O)c2cnn(-c3cccc4ncccc34)c2C(F)(F)F)cc1C#N` [Cpd 81, N-(5-cyano-6-ethoxypyridin-3-yl)-1-(quinolin-5-yl)-5-(trifluoromethyl)-1H-pyrazole-4-carboxamide], for which the IC50 in assay [1] was 138 nM; in assay [2] it was 123 nM; in assay [3] it was around 1350 nM; in assay [4], 11500 nM; in assay [5], 135 nM.
On the same counts, the results for `N#Cc1cncc(NC(=O)c2cnn(-c3cncc4ccccc34)c2C(F)(F)F)c1` [Cpd 82, N-(5-cyanopyridin-3-yl)-1-(isoquinolin-4-yl)-5-(trifluoromethyl)-1H-pyrazole-4-carboxamide] are 295 nM, 676 nM, around 1580 nM, 6310 nM and 240 nM.
On the same counts, the results for `N#Cc1cc(NC(=O)c2cnn(-c3cccc4ncccc34)c2C(F)(F)F)cnc1-n1nccn1` [Cpd 83, N-(5-cyano-6-(2H-1,2,3-triazol-2-yl)pyridin-3-yl)-1-(quinolin-5-yl)-5-(trifluoromethyl)-1H-pyrazole-4-carboxamide] are 43 nM, 34 nM, 510 nM, around 8320 nM and 32 nM.
Turning to `N#Cc1cc(NC(=O)c2cnn(-c3cncc4ccccc34)c2C(F)(F)F)cnc1OCCCCN` [Cpd 84, N-(6-(4-aminobutoxy)-5-cyanopyridin-3-yl)-1-(isoquinolin-4-yl)-5-(trifluoromethyl)-1H-pyrazole-4-carboxamide], the IC50 was 355 nM in assay [1]; 214 nM in assay [2]; 1700 nM in assay [3]; above 20000 nM in assay [4]; 148 nM in assay [5].
For the molecule `COc1ncc(NC(=O)c2cnn(-c3cccc4ncccc34)c2C(F)(F)F)cc1C#N` [Cpd 85, N-(5-cyano-6-methoxypyridin-3-yl)-1-(quinolin-5-yl)-5-(trifluoromethyl)-1H-pyrazole-4-carboxamide], the IC50 in assay [1] was 120 nM; in assay [2] it was 132 nM; in assay [3], 1660 nM; in assay [4] it was above 20000 nM; in assay [5], 95 nM.
On the same counts, the results for `N#Cc1cc(NC(=O)c2cnn(-c3cccc4ncccc34)c2C(F)(F)F)cnc1-n1cncn1` [Cpd 86, N-(5-cyano-6-(1H-1,2,4-triazol-1-yl)pyridin-3-yl)-1-(quinolin-5-yl)-5-(trifluoromethyl)-1H-pyrazole-4-carboxamide] are 148 nM, 71 nM, 780 nM, around 11200 nM and 37 nM.
The corresponding values for `O=C1COc2c(Cl)cc(NC(=O)c3cnn(-c4cncc5ccccc45)c3C(F)(F)F)cc2N1` [Cpd 87, N-(8-Chloro-3-oxo-3,4-dihydro-2H-benzo[b][1,4]oxazin-6-yl)-1-(isoquinolin-4-yl)-5-(trifluoromethyl)-1H-pyrazole-4-carboxamide] are 324 nM, 141 nM, 1700 nM, around 13800 nM and 251 nM.
`N#Cc1cc(NC(=O)c2cnn(-c3cccc4ncccc34)c2C(F)(F)F)cnc1OC1CC1` [Cpd 88, N-(5-cyano-6-cyclopropoxypyridin-3-yl)-1-(quinolin-5-yl)-5-(trifluoromethyl)-1H-pyrazole-4-carboxamide]: the IC50 in assay [1] is 209 nM; in assay [2], 107 nM; in assay [3], 1350 nM; in assay [4] it was around 12000 nM; in assay [5] it was 331 nM.
`Cn1ccc(-c2ncc(NC(=O)c3cnn(-c4cccc5ncccc45)c3C(F)(F)F)cc2C#N)n1` [Cpd 89, N-(5-cyano-6-(1-methyl-1H-pyrazol-3-yl)pyridin-3-yl)-1-(quinolin-5-yl)-5-(trifluoromethyl)-1H-pyrazole-4-carboxamide]: the IC50 was 95 nM in assay [1]; 41 nM in assay [2]; 740 nM in assay [3]; above 20000 nM in assay [4]; 74 nM in assay [5].
The corresponding values for `N#Cc1cc(NC(=O)c2cnn(-c3nccc4sccc34)c2C(F)(F)F)cnc1-n1nccn1` [Cpd 90, N-(5-cyano-6-(2H-1,2,3-triazol-2-yl)pyridin-3-yl)-1-(thieno[3,2-c]pyridin-4-yl)-5-(trifluoromethyl)-1H-pyrazole-4-carboxamide] are 135 nM, 21 nM, 520 nM, around 3890 nM and 98 nM.
The corresponding values for `CN1C(=O)COc2c(Cl)cc(NC(=O)c3cnn(-c4cccc5ncccc45)c3C(F)(F)F)cc21` [Cpd 95, N-(8-Chloro-4-methyl-3-oxo-3,4-dihydro-2H-benzo[b][1,4]oxazin-6-yl)-1-(quinolin-5-yl)-5-(trifluoromethyl)-1H-pyrazole-4-carboxamide] are 302 nM, 117 nM, 3800 nM, around 7940 nM and 646 nM.
On the same counts, the results for `CN1CCN(C(=O)c2ncc(NC(=O)c3cnn(-c4cncc5ccccc45)c3C(F)(F)F)cc2C#N)CC1` [Cpd 96, N-(5-cyano-6-(4-methylpiperazine-1-carbonyl)pyridin-3-yl)-1-(isoquinolin-4-yl)-5-(trifluoromethyl)-1H-pyrazole-4-carboxamide] are 676 nM, 759 nM, 7080 nM, around 15500 nM and 1050 nM.
Turning to `CN1C(=O)COc2c(Cl)cc(NC(=O)c3cnn(-c4cncc5ccccc45)c3C(F)(F)F)cc21` [Cpd 97, N-(8-chloro-4-methyl-3-oxo-3,4-dihydro-2H-benzo[b][1,4]oxazin-6-yl)-1-(isoquinolin-4-yl)-5-(trifluoromethyl)-1H-pyrazole-4-carboxamide], the IC50 in assay [1] is 257 nM; in assay [2], 209 nM; in assay [3], 3470 nM; in assay [4] it was around 5890 nM; in assay [5], 575 nM.
The corresponding values for `Cn1ccnc1-c1ncc(NC(=O)c2cnn(-c3cncc4ccccc34)c2C(F)(F)F)cc1Cl` [Cpd 98, N-(5-chloro-6-(1-methyl-1H-imidazol-2-yl)pyridin-3-yl)-1-(isoquinolin-4-yl)-5-(trifluoromethyl)-1H-pyrazole-4-carboxamide] are 417 nM, 200 nM, 5750 nM, around 11000 nM and 468 nM.
